# According to patent EP0006352A1, “Hydantoins and thiohydantoins, process for their preparation and pharmaceutical compositions containing them” (BEECHAM GROUP PLC, priority 1978, dated 1980):
# What was measured:
# [1] = test system: bronchoconstriction induced by an histamine aerosol; assay: Protection of conscious guinea-pigs against histamine aerosol induced bronchoconstriction (Herxheimer test); format: in vivo; conditions: 10 gg/ml by aerosol
# Protocol: (b) The Compounds were also examined for their ability to protect conscious guinea-pigs against bronchoconstriction induced by an histamine aerosol (Herxheimer test). The Compounds were administered by aerosol.
# The aerosol was produced in the following manner.
# Water soluble compounds were dissolved in normal saline at a concentration of 1 mg/ml. Water insoluble compounds were dissolved in ethanol at a concentration of 10 mg/ml. These solutions were then diluted to the test concentrations with normal saline.
# [2] = test system: 5-hydroxytryptamine induce bronchoconstriction; assay: Inhibition of 5-hydroxytryptamine induced bronchoconstriction in the anaesthetised, artificially respired guinea-pig (Konzett-Rossler preparation); format: in vivo; conditions: Cavia porcellus, iv
# Text: (a) The Compounds were examined for their ability to inhibit 5-hydroxytryptamine induce bronchoconstriction in the anaesthetised, artificially respired guinea-pig (Konzett-Rossler preparation).
smiles,measurement,setting,value
"CCCCCCC(C)(O)CCN1C(=O)N(CC#N)C(=O)C1CC=CCCCC(=O)OCC (stereo not drawn) [Compound 2, 1-(3'-hydroxy-3'-methyl-n-nonyl)-3-cyanomethyl-5-(6""-ethoxycarbonyl-n-hex-2""-enyl) hydantoin]",increase in pre-convulsive coughing time,[1]; 2 minutes after dosing,178%
same,increase in pre-convulsive coughing time,[1]; after 10 minutes,39%
same,ED50,[2],1.1 µg/kg
